Structures are written as SMILES.

Drawing on US20040115710A1, “Method for assaying compounds that decrease the activity of poly (ADP-ribose)-Polymerase (PARP)” (Aventis Pharmaceuticals Inc., priority 2002, published 2004), this text covers IC50 for two compounds.

The target of test [1] is T1, Poly(ADP-Ribose)-Polymerase enzyme (PARP) (Homo sapiens, UniProt P09874).
T1 construct: IC50
As to the kind of experiment: Fluorescence polarization PARP inhibition assay (Texas Red-labeled NAD+ tracer, histone, DNA). It is filed as biochemical. Conditions: known inhibitor of PARP used as control compound; inhibition curve in FIG. 3. The source says:
(§1) The transfer of Texas Red-ADP ribose to protein substrates (histone and PARP itself) can be monitored through the rotational speed of the fluorescence tracer by the fluorescence polarization method. The assay measures the ability of the test compounds to inhibit the enzyme to transfer fluorescence labeled ADP to protein substrates.
(§2) A PARP baculovirus which encodes the amino acid sequence of FIG. 6 (SEQ ID NO: 1), was used to infect sf(9) cells. After PARP was expressed, it was partially purified by 40-70% ammonia sulfate cuts, and then re-suspended in TRIS buffer containing 25% (v/v) glycerol. […]
(§3) After incubation, this mixture and the control mixture were illuminated with plane polarized light having a wavelength of 590 nm, and the fluorescence polarization of the mixture and the control mixture were measured using a fluorescence filter set with an excitation wavelength of 590 nm, and an emission wavelength of 620 nm. The measurements were made with a fluorescence polarization plate reader in fluorescence polarization (FP) mode. These two measurements were then compared to determine whether the fluorescence polarization measurement of the mixture containing the compound or agent is less than that of the control. […]
For orientation: In fluorescence polarisation assays a small probe gives low polarisation when free and higher when bound to something large.

The target in test [2] is Poly(ADP-Ribose)-Polymerase enzyme (PARP) (Homo sapiens, UniProt P09874, E70Q). Described as above. The note with it: standard (control) inhibitor of PARP, value given in materials table. It is filed as biochemical.
Source text: as §1, §2, §3

T1 sequence (P09874 whole entry): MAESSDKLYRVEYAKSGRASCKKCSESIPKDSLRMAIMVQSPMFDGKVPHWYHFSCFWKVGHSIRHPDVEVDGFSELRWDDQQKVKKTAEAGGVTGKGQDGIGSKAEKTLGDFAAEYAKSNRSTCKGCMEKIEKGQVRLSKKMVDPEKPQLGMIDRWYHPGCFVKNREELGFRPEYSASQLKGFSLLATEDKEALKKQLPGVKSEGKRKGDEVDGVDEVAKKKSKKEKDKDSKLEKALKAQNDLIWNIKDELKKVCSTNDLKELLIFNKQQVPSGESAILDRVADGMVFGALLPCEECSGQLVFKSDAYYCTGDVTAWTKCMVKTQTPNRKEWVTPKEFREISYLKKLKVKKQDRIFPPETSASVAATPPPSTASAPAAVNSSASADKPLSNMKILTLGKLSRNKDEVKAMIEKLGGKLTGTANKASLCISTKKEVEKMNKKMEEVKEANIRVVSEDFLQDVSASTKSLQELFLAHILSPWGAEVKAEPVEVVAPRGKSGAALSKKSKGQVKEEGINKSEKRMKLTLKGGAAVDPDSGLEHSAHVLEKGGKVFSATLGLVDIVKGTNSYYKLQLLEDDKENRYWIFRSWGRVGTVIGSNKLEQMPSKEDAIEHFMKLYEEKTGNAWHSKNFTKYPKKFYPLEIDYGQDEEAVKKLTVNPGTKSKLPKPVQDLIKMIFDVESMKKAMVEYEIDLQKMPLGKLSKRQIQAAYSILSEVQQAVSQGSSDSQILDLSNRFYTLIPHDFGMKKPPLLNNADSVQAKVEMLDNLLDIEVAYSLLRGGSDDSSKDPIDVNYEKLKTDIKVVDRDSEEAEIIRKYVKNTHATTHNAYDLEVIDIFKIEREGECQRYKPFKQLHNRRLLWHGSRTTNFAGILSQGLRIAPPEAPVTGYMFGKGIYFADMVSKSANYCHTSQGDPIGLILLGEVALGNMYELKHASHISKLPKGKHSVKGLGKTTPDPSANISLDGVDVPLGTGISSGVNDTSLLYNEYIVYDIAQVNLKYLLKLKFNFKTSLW
Poly(ADP-Ribose)-Polymerase enzyme (PARP) (Homo sapiens, UniProt P09874, E70Q), sequence (P09874 whole entry E70Q): as the sequence (P09874 whole entry) above, with E70Q counted along it

The IC50 is the concentration at which inhibition is half-maximal. Read a low IC50 as greater potency. As to `Oc1cccc2c(O)nccc12` [1,5-isoquinoline-diol], in test [1], it took 0.379 µM to reach half-maximal inhibition (IC50).

Compound `O=c1[nH]c2ccccc2c2ccccc12` [6(5H)-phenanthridinone] had an IC50 in test [2] of 0.2 µM.
